The assay in a line: Old liquid medium can be removed and replaced with new medium (200 μL) on day 0.Formulating the compound and treating the cells in the experiment of anti virus: the compound was dissolved in DMSO to a concentration of 30 mM, and then the compound solution was diluted with DMSO to a concentration of […], and then eight dilutions at 4 fold were performed, the highest concentration is 800 μM. The serial diluted compound was added to the above plate at 1 μL per well, the highest final concentration in the experiment is 4 μM (200 fold dilution). TDF (tenofovir dipiroxil fumarate, Selleck, Cat S1400) has a highest concentration of 4 μM as a positive control. […] at a final concentration of 0.5%, TDF was added in to the positive control well at a final concentration of 1 μM.Detection of Viral Genomic DNA by qPCRPrimer: HBV-For-202, […]; HBV-Rev-315, […]. Copies of virus can be calculated using a standard curve plotted by using plasmid containing HBV genome and using SYBR Premix Ex Taq II Takara DRR081S kit and 1 μL cell culture supernatant as a template. EC50 values of the compound on viral replication were calculated by a four parametric nonlinear regression model using Graphpad Prism 5 software to manage concentration—viral copy number. Particulars: HepG2.2.15.

Results on 1 compound are retold here after ChEMBL document CHEMBL5729003, “Dihydropyrimidine compounds and uses thereof in medicine” (2022).

Take `COC[C@@H]1[C@H]2CN(c3ccc(C(C)(C)OC=O)cc3)C(=O)N2CCN1CC1=C(C(=O)OC)[C@H](c2ccc(F)cc2Cl)N=C(c2nccs2)N1`: the EC50 – broadly, the concentration giving half of the maximal effect – was 5 nM.
